Article PMC9981512, “Thin film hydration versus modified spraying technique to fabricate intranasal spanlastic nanovesicles for rasagiline mesylate brain delivery: Characterization, statistical optimization, and in vivo pharmacokinetic evaluation” (Drug Delivery and Translational Research, 2022)
Counter-ions that a name gives are not always drawn. Like-named read-outs stand apart in the source and are kept apart here.

How the values were obtained:
[1] = In vitro release of RM, modified Franz diffusion cells with dialysis membrane, simulated nasal fluid; type: physicochemical; conditions: simulated nasal fluid pH 6.5, 37 °C, 50 rpm
Description: The in vitro release of RM from the optimized systems was investigated using modified Franz diffusion cells (Franz diffusion cell with dialysis membrane). In a few words, an exact volume of each optimized system was placed in the donor cell, and the dialysis process was performed against 50 mL of simulated nasal fluid (SNF; CaCl2.2H2O 0.32 mg/mL, NaCl 7.45 mg/mL, KCl 1.29 mg/mL, pH 6.5) maintained at 37 °C while stirring at 50 rpm. Three milliliter sample was withdrawn at each time interval (0.25, 0.5, 1, 1.5, 2, 3, 4, 6, 8, 10 and 12 h) and replaced with equal volumes of drug free SNF [39]. The amount of RM in each sample was measured spectrophotometrically at λmax 265 nm. The in vitro release profiles of the two optimized systems were compared to RM aqueous solution profile. Furthermore, the mean dissolution time (MDT) was calculated for both systems following Eq. (2):2 MDT=∑j=1ntj∗ΔMj/∑j=1nΔMj where j is the sample number, tj* is the midpoint time between t and tj-1 that can be calculated by (t + tj-1/2), n is the number of release samples, and ∆Mj is the additional amount released between t and tj-1. The higher the MDT value, the slower the drug release rate.

[2] = In vivo pharmacokinetics and brain targeting in rats, LC-MS/MS of brain homogenate and plasma; conditions: rat, RM in brain, intravenous, 0.05 mg/kg/day
Description: In order to evaluate the in vivo performance of the selected MST 2, an in vivo pharmacokinetics study was performed to measure the bioavailability and brain-targeting ability of the selected system after intranasal administration into rats. The study protocol was previously approved by the research ethics committee for the experimental and clinical studies at the Faculty of Pharmacy Cairo University with approval code (PI 2680). Briefly, forty-eight rats were divided into two groups (n = 24), and each group was divided into eight subgroups (n = 3). The average weight of the rats was 180 gm, and they were subjected to 12-h cycles of light/darkness. They were kept in cages with free access to food and water. The relative humidity was maintained in range 40–60%, and the temperature ranged from 20 to 25 °C during the experiment.
The first group was administered the optimized MST 2 equivalent to 0.05 mg/kg/day of RM [44] intranasally (IN) using a polyethylene tube which was attached to Hamilton syringe, whereas the second group was administered the same dose of an intravenous (IV) RM aqueous solution through the tail vein. Blood samples were collected from the rats at specified time intervals (0.25, 0.5, 1, 1.5, 2, 4, 8, and 12 h) via the puncture of lateral vesicular vein, centrifuged at 4000 rpm for 15 min, and separated to obtain the plasma that was then frozen at –80 °C until further investigations. Additionally, six rats (three of each subgroup) were anaesthetized and sacrificed to separate the brain tissues at 0.5, 1, 2, 4, and 8 h. The brain tissues were washed twice with normal saline and then weighed. An equal weight of normal saline was added to each brain sample, which was then homogenized (Heidolph DIAX 900, Heidolph Instruments, Schwabach, Germany) and kept frozen at – 80 °C until analysis. RM levels in plasma samples and brain homogenates were measured by a validated liquid chromatography-mass spectrometry (LC–MS/MS) method.
Calibration curves of RM in plasma and brain homogenate were constructed using clonazepam as internal standard (IS). Briefly, specific volumes of RM stock solution were mixed with one hundred microliter of clonazepam stock solution (100 ng/mL) and then spiked into 0.5 mL plasma or brain homogenate to obtain the following concentrations: 0.1, 1, 10, 20, 100, and 1000 ng/mL. For RM extraction from the samples, 0.5 mL of plasma samples or brain homogenates was mixed with 100 µL of clonazepam solution as IS and 4 mL of ethyl acetate to precipitate the proteins followed by vortexing (Stuart SA8, BiBBY Sterlin Ltd., UK) for 5 min and centrifugation for 10 min at 3000 rpm. The supernatant was transferred to a new tube to evaporate the organic solvent under vacuum using a vacuum concentrator (Eppendorf 5301, Hamburg, Germany). The obtained dry residue was reconstituted in 0.5 mL of the mobile phase (acetonitrile: 0.1% formic acid solution in water at a ratio (80:20 v/v)) after then, 9 µL of the obtained solution was injected into (LC–MS/MS) for analysis.
The analysis of RM in plasma samples and brain homogenates was done by LC–MS/MS (Shimadzu CBM20A, Japan) fitted with mass spectrometer AB Sciex 4000 (Sciex Instruments, USA) and auto-sampler (Shimadzu SIL20A, Japan). The mass spectrometer was equipped with turbo ion spray having a positive polarity with temperature set at 500 °C. The samples were analyzed by injecting aliquots of 9 µL, and the mobile phase flow rate was adjusted at 0.8 mL/min. The transition was from 172.036 to 117.000 m/z for RM and from 316.024 to 270 m/z in case of clonazepam. The analysis of the obtained results was done using Analyst software (version 1.6.3, Sciex Instruments, Framingham, USA).
Non-compartmental pharmacokinetic model was applied to analyze RM plasma and brain levels using Kinetica software (version 2000, Arlington, USA). […]

[3] = after oral administration; cited from earlier work

Question: For `C#CCN[C@@H]1CCc2ccccc21` [RM, Rasagiline mesylate], which “mean dissolution time (MDT)” value [1] is on record?
Answer: 0.333 ± 0.0991 h

Question: What about the “time of complete release of RM” value [1] of the same compound?
Answer: 4 h

Question: And the AUC(0-inf) [2]?
Answer: 28 ± 1.84 ng·h/mL

Question: What about the Cmax [2] of the same compound?
Answer: 15.8 ± 0.34 ng/mL

Question: What about the Tmax [2] of the same compound?
Answer: 0.5 h

Question: What about the k el ([2]; read-out: K (hr^−1) elimination rate constant (converted)) of the same compound?
Answer: 0.377 h⁻¹

Question: And the MRT ([2]; read-out: MRT (hr) mean residence time)?
Answer: 2.27 ± 0.71 h

Question: What about the half-life ([2]; read-out: T1/2 half (converted)) of the same compound?
Answer: 1.83 ± 0.24 h

Question: What about the half-life [3] of the same compound?
Answer: 1.5 to 3.5 h

Question: What about the “time to reach maximum concentration in plasma” value [3] of the same compound?
Answer: ≤ 1 h
